{
  "source": "patent US8637079B2",
  "about": "“Solid preparation comprising alogliptin and pioglitazone” (Takeda Pharmaceutical Company Limited, priority 2007, dated 2014)",
  "assay": "Chemical stability on storage: amount of benzoic acid remaining as compound (IA)",
  "type": "physicochemical",
  "protocol": "Compound (IA) (50 mg) of Comparative Example 1, the mixture (99.59 mg) of Comparative Example 2, and tablets of Example 1 and Example 2 were preserved in glass bottles at 40° C., 75% RH with opened cap or at 60° C. with closed cap and the amount of benzoic acid remaining as compound (IA) was measured to evaluate the chemical stability.",
  "data": [
    {"smiles": "Cn1c(=O)cc(N2CCC[C@@H](N)C2)n(Cc2ccccc2C#N)c1=O", "note": "[Comparative Example 1, 2-[[6-[(3R)-3-amino-1-piperidinyl]-3,4-dihydro-3-methyl-2,4-dioxo-1(2H)-pyrimidinyl]methyl]-benzonitrile]", "values": [
      {"measurement": "residual benzoic acid", "setting": "40° C., 75% RH, opened bottle, 2 week storage product", "value": 99.2, "unit": "%"},
      {"measurement": "residual benzoic acid", "setting": "60° C., closed bottle, 2 week storage product", "value": 99.0, "unit": "%"},
      {"measurement": "residual benzoic acid", "setting": "Initial", "value": 99.8, "unit": "%"}
    ]}
  ]
}
